# Data as given in ChEMBL document CHEMBL1143216, “Synthesis of 1,2,3-triazole-linked pyrrolobenzodiazepine conjugates employing 'click' chemistry: DNA-binding affinity and anticancer activity” (2008).
# Experiments:
# PC-3 = assay: Growth inhibition of human PC3 cells by SRB method; format: functional
# [1] = Growth inhibition of human DWD cells by SRB method; format: functional
# MCF7 = assay: Growth inhibition of human MCF7 cells by SRB method; format: functional
# A549 = assay: Growth inhibition of human A549 cells by SRB method; format: functional
# SiHa = assay: Growth inhibition of human SiHa cells by SRB method; format: functional
# [2] = Growth inhibition of human Gurav cells by SRB method; format: functional
# KB = assay: Growth inhibition of human KB cells by SRB method; format: functional
# ZR-75-1 = assay: Growth inhibition of human Zr-75-1 cells by SRB method; format: functional
# A2780 = assay: Growth inhibition of human A2780 cells by SRB method; format: functional
# COLO 205 = assay: Growth inhibition of human Colo205 cells by SRB method; format: functional
# DNA = assay: Binding affinity to calf thymus DNA assessed as helix melting temperature at 20 uM after 18 hrs; format: nucleic-acid assay; settings: Bos taurus
Structure (SMILES),GI50 (PC-3) [nM],GI50 [1] [nM],GI50 (MCF7) [nM],GI50 (A549) [nM],GI50 (SiHa) [nM],GI50 [2] [nM],GI50 (KB) [nM],GI50 (ZR-75-1) [nM],GI50 (A2780) [nM],GI50 (COLO 205) [nM],ΔTm (DNA) [°C]
COC(=O)c1nnn(CCCCCOc2cc3c(cc2OC)C(=O)N2C[C@@H](n4nnc(C(=O)OC)c4C(=O)OC)C[C@H]2C=N3)c1C(=O)OC,170,150,2050,2410,120,1820,1920,5510,160,1920,5.9
COC(=O)c1nnn(CCCCOc2cc3c(cc2OC)C(=O)N2CCC[C@H]2C=N3)c1C(=O)OC,25400,2240,30500,28700,2040,2390,2360,2120,130,210,0
COC(=O)c1nnn(CCCCOc2cc3c(cc2OC)C(=O)N2C[C@@H](n4nnc(C(=O)OC)c4C(=O)OC)C[C@H]2C=N3)c1C(=O)OC,–,–,–,–,–,–,–,–,–,–,0
COC(=O)c1nnn([C@H]2C[C@H]3C=Nc4ccccc4C(=O)N3C2)c1C(=O)OC,–,–,–,–,–,–,–,–,–,–,2.3
COC(=O)c1nnn([C@H]2C[C@H]3C=Nc4cc(OC)c(OC)cc4C(=O)N3C2)c1C(=O)OC,2230,2260,2170,–,210,2390,26400,2470,914,1090,2.8
COC(=O)c1nnn([C@H]2C[C@H]3C=Nc4cc(OCc5ccccc5)c(OC)cc4C(=O)N3C2)c1C(=O)OC,–,29700,27600,–,2040,–,–,–,25800,27900,2.2
COc1cccc2c1C(=O)c1c(O)c3c(c(O)c1C2=O)C[C@@](O)(C(=O)CO)C[C@@H]3O[C@H]1C[C@H](N)[C@H](O)[C@H](C)O1 [DOXORUBICIN],1810,100,180,7250,180,170,170,1790,170,150,–
COC(=O)c1nnn(CCCCCOc2cc3c(cc2OC)C(=O)N2CCC[C@H]2C=N3)c1C(=O)OC,29100,26000,–,6120,2150,26800,7190,1930,26000,2170,3.6
COC(=O)c1nnn(CCCOc2cc3c(cc2OC)C(=O)N2C[C@@H](n4nnc(C(=O)OC)c4C(=O)OC)C[C@H]2C=N3)c1C(=O)OC,–,–,2120,7120,2170,2420,1050,–,190,2010,4.5
COc1cc2c(cc1O)N=C[C@@H]1CCCN1C2=O,200,1490,170,160,170,160,170,2370,140,110,0.7
COC(=O)c1nnn(CCCOc2cc3c(cc2OC)C(=O)N2CCC[C@H]2C=N3)c1C(=O)OC,28700,25500,–,24700,2120,25100,26600,2530,2480,2090,3.1
